Reference: patent US20220241314A1, “COMPOSITIONS AND METHODS FOR TREATMENT OF HEPATITIS B VIRUS INFECTION” (priority 2019, published 2022)
{ppp} = triphosphate

Tests used:
HBV cccDNA = experiment: Decay kinetics of established cccDNA and HBsAg secretion under treatment from 3 dpi to 20 dpi; type: cell-based, HBV (Genotype D); conditions: HepG2-hNTCP; for production and secretion of HBsAg / cccDNA levels over treatment time course (Southern blot, qPCR): treatment from 3 dpi through 20 dpi; for cccDNA levels over treatment time course (Southern blot, qPCR) / delay before cccDNA starts decreasing (τ) / half-life of cccDNA (t1/2): ETV 500 nM, F7 10 μM, poly-U/UC 100 ng/ml; for delay before cccDNA starts decreasing (τ) / half-life of cccDNA (t1/2): treatment from 3 dpi, model fit of RT-qPCR data, three replicates
Experimental: (5A) HBV infection and treatment schedule. On day 0 HepG2-hNTCP cells were infected with HBV at moi of 1000 Geq/cell, incubated for 24 hr, and media was replaced. On day three the cells were harvested or treated with DMSO, ETV (500 nM), F7 (10 μM), poly-U/UC (100 ng/ml), or with ETC combination with F7 or poly-U/UC, PAMP. Cells were harvested at the indicated points over a 20-day time course. (5B), (5C) DNA was isolated by Hirt extract and subjected to Southern blot analysis using an HBV-specific DNA probe. Percentage values below each lane indicate the relative amount of cccDNA compared to day three control prior to each treatment. The positions of mass markers are indicated. (5D) cccDNA levels were measured by RT-qPCR. Relative cccDNA values to mitochondrial DNA (MT-CO3) are shown. Statistical significance was determined using Student's t test. Data are presented as mean standard deviation (SD), *P<0.01, **P<0.005, ***P<0.001 and ns=non-significant (E) Half-life of cccDNA from RT-qPCR analyses was estimated from the simultaneous fitting of three replicates under each treatment strategy. C(t) is the % values of cccDNA at time ‘t’ post-treatment, C(0) is the % values of cccDNA at the start of the treatment. (5F) HBsAg across the time course for each treatment series. Statistical significance as determined using Student's t test. Data are presented as mean standard deviations (SD), **P<0.005, and ns=non-significant.
ETV is a nucleoside analog that prevents the viral reverse transcription and replication of new synthesized HBV DNAs, thereby preventing the replenishment of cccDNA by de novo formation. ETV was applied to HBV-infected cultures at a 100-fold IC50 (Langley, D. R., et al. (2007). Inhibition of Hepatitis B Virus Polymerase by Entecavir. Journal of virology 81, 3992-4001) thereby allowing for the measurement of cccDNA half-life under conditions in which levels are sustained only from the initial cccDNA pool. Cells were then harvested over a treatment time course, and DNA extracts were analyzed by Southern blot and qPCR assay. […] J Hepatol 69, 1231-1241). […] Enhanced cccDNA decay kinetics by F7 treatment was also confirmed by RT-PCR analysis (FIG. 5D). […] Thus, F7 and poly-U/UC PAMP impart the therapeutic decay of established cccDNA.
Reverse transcription quantitative real time qPCR (RT-qPCR) analysis: Total cellular RNAs were extracted from cells using TRIZOL reagent and the manufacturers protocol (Invitrogen). cDNA was synthesized from the purified RNA by both random and oligo (dT) priming using iScript select cDNA synthesis kit (Biorad, Inc.). For HBV cccDNA expression analysis, total DNA was extracted using the DNeasy kit (QIAGEN). For selective cccDNA PCR analysis, isolated DNAs were treated with 10 Units of T5 exonuclease (NEB) for 30 min in 10 μl of reaction volume in 37° C., followed by heat-inactivation at 95° C. for 5 min and 4-fold dilution with Nuclease-free water. For extra-cellular HBV DNA quantification, an external HBV plasmid standard was used to program the PCR (Ko, C., et al. (2018), supra).

in vitro [1] = conditions: human, HepG2-hNTCP cells (HepG2-C3A-hNTCP)
Experimental: (§1) HepG2-NTCP Cells (10A and 10C), dHepaRG (10B and 10D), and PHH (10E) were treated with increasing doses of F7 or poly-U/UC PAMP for 72 hours. Cell viability was determined concurrently by measuring ATP content, with values normalized to mock-treated cells. Graph represents the mean of triplicated samples in each of 3 independent experiments, with error bars showing standard deviation.ns=non-significant.
(§2) To determine the values of 90% of maximal Inhibitory concentration (IC90) and half-maximal Inhibitory concentration (IC50), as well as the cytotoxic concentration, CC50, of F7 and poly-U/UC, PAMP, two different cell lines were used, HepG2-hNTCP and dHepaRG cells.
(§3) Cytotoxicity assays: Cytotoxicity was evaluated from cultures of HepG2-C3A -hNTCP and dHepaRG cells using CellTiter-Glo as described (Edwards, T. C., et al. (2019). Inhibition of HBV replication by N-hydroxvisoquinolinedione and N-hydroxypyridinedinone ribonuclease H inhibitors. Antiviral research 164, 70-80). […] Cytotoxicity of each was measured with the ATP content as a measure of cell viability using the CellTiter-Glo™ reagent (Promega) per manufacturer's instructions. The plates were read using a luminescence plate reader (Berthold) and the relative luminescence unit (RLU) data generated from each well was calculated as percent signal compared to the untreated control. […]

in vitro [2] = conditions: human
Experimental: as §1, §2, §3

dHepaRG cells = experiment: Cytotoxicity, cellular ATP content (CellTiter-Glo), dHepaRG; conditions: 72 hours (FIG. 10D), 23.49 nM = 800 ng/ml
Experimental: as §1, §2, §3

Molecule | production and secretion of HBsAg (HBV cccDNA) | cccDNA levels over treatment time course (Southern blot, qPCR) (HBV cccDNA) | delay before cccDNA starts decreasing (τ) (HBV cccDNA) [days] | half-life of cccDNA (t1/2) (HBV cccDNA) [h] | CC50 at 72 h (in vitro [1]) [µM] | CC50 at 72 h (in vitro [2]) [µM] | CC50 (dHepaRG cells) [µM]
O=C(Nc1ccc2nc(NC(=O)c3ccc4ccccc4c3)sc2c1)c1ccccc1 [F7, N-(6-benzamido-1,3-benzothiazol-2-yl)naphthalene-2-carboxamide] | suppressed HBsAg secretion | stimulated the decay of cccDNA | 4.0 | 209 | > 40 | > 40 | –
poly-U/UC PAMP: ~100 nt PAMP motif from the HCV genome comprising 5′ppp and the poly U/UC region, recognized by RIG-I; formulated in liposome (nucleic acid, RNA, 5' {ppp}, backbone and methylation of C not given here; formulated in liposome, ~100 nt PAMP motif from the HCV genome comprising 5′ppp and the poly U/UC region, recognized by RIG-I; formulated in liposome) GGCCAUCCUGUUUUUUUCCCUUUUUUUUUUUCUUUUUUUUUUUUUUUUUUUUUUUUUUUUUUUUUUCUCCUUUUUUUUUCCUCUUUUUUUCCUUUUCUUUCCUUU | suppressed HBsAg secretion | reduced the cccDNA abundance | 3.8 | 185 | – | – | > 0.0235
